How the values were obtained:
[1] = Low-speed centrifugation to sediment unincorporated HPPH; assay type: physicochemical; details: 6,000 rpm, 20-30 minutes, HBS
Procedure: HPPH-loaded vesicles were placed in microcentrifuge tubes and centrifugations were carried out at 6,000 rpm (˜3000 RCF) for 30 minutes at 20-25° C. using a fixed-angle rotor centrifuge. Supernatants containing the vesicle-incorporated HPPH were collected, and any unincorporated HPPH, which aggregates in aqueous environment, was sedimented in the pellet fraction. A sample of an equivalent amount of free HPPH was suspended in HBS (without the lipids), and mixed by vortexing. The free HPPH aggregated in the buffer, which could be sedimented in the pelleted fraction upon centrifugation at low-speed as described above. This protocol presented a simple procedure to remove unincorporated HPPH from the vesicle-associated HPPH.
Free, unincorporated HPPH aggregates in aqueous buffer due to its insolubility, and can be pelleted upon sedimentation by low-speed centrifugation. Size exclusion chromatography (PD10 columns, GE Scientific) was used to separate unincorporated HPPH from the vesicles; however, in these embodiments, it was observed that sonication of HPPH dispersion in the HBS (in the absence of lipids) generated smaller HPPH aggregates that coeluted (in part) with vesicle-associated HPPH on the PD10 column. […] The HPPH suspended in HBS (in the absence of lipids) remained in suspension prior to centrifugation as determined by absorbance measurements. […]

[2] = 661 nm laser treatment (HPPH photodamage); assay type: physicochemical; details: five minutes
Procedure: 661 nm Laser Treatment of Vesicle20-HPPH: Vesicle20-HPPH (containing 50-100 μg lipid & 2.5-5 μg HPPH) were placed in a microcentrifuge tube and irradiated horizontally in a box fitted with a diode laser cube at room temperature. Irradiation was done for five minutes using the 661 nm laser (Coherent Cube Part Number 1130061) at a power output of 90 mW (125 mW/cm^2, as measured by the Thorlabs PM200 Energy Meter with the S121C Photodiode Power Sensor). Free HPPH dispersed in Tween 80 (Tween 80-HPPH) (4) and DPPC:DC8,9PC:DSPEG2000 vesicles (Table 1B) were used as controls to compare the extents of photodamage.
The efficiency of photoactivation by HPPH upon laser exposure depends on its environment and aggregation state. Laser treatment of HPPH results in photodamage and serves as an indication of its activity. Therefore, the photodamage of vesicle-formulated HPPH was compared with Tween 80-HPPH and a formulation comprising DPPC and a lower concentration of DSPE-PEG2000 (see Table 2). The extent of photodamage was tested using Vesicle10-HPPH containing 1:0.05 Lipid:HPPH ratios (Table 2) upon treatment with 661 nm laser for five minutes.

[3] = cited from earlier work

CCCCCCOC(C)c1c(C)c2cc3nc(c4c5[nH]c(cc6nc(cc1[nH]2)C(C)=C6CC)c(C)c5C(=O)C4)[C@@H](CCC(=O)O)[C@@H]3C (stereo partly shown) [HPPH, 2-[1-hexyloxyethyl]-2-devinyl pyropheophorbide-a]
HPPH sedimented into the pelleted fraction [1]: nearly complete sedimentation
extent of photodamage (HPPH fluorescence remaining after laser) [2]: did not result in a decrease in fluorescence
molar extinction ε ([3]; at 665 nm): 47,500 M^−1 cm^−1
log P ([3]; physiological pH): 5.6

Source: patent US12178907B2, “Binary lipid bilayer-containing vesicles comprising embedded cytotoxic agents and methods of making and using the same” (The USA, as represented by the Secretary, Department of …, priority 2018, dated 2024)
